Measured values: PMC7730263, “Function and Regulation of the Pyruvate Transporter CstA in Escherichia coli” (International Journal of Molecular Sciences, 2020)

What was measured:
[1] = biological target: T1, CstA (CstA-6His) (Escherichia coli, UniProt P15078); experiment: competition with […]pyruvate uptake into intact cells, rapid filtration; assay type: cell-based; conditions: 1 mM competitor against 10 µM [14C]pyruvate; Tris/MES pH 7.5, 5 mM MgCl2, 15 °C; competitor for the pyruvate site
T1 construct: full-length, 701 residues, 6His tag, from plasmid pBAD24-cstA6H (uninduced) in intact E. coli MG1655 ΔbtsT ΔcstA ΔyhjX cells; inner membrane protein, TC# 2.A.114

[2] = substrate: CC(=O)C(=O)O; experiment: cells, lysate or membranes; assay type: cell-based, Escherichia coli; conditions: labelled compound, intact cells of 3Δ mutant with p-cstA, Tris/MES pH 7.5, 5 mM MgCl2, 15 °C, background of 3Δ mutant subtracted, proton-gradient driven

In the case of `O=C(O)C(=O)CBr` [Br-pyruvate], the “competition with [14C]pyruvate uptake into intact cells, rapid filtration” value [1] is reported as “Only pyruvate itself or Br-pyruvate (a synthetic analogue) were found to act as competitors”.

B1: CstA (CstA-6His) (Escherichia coli K-12) (protein)
chain: MNKSGKYLVWTVLSVMGAFALGYIALNRGEQINALWIVVASVCIYLIAYRFYGLYIAKNVLAVDPTRMTPAVRHNDGLDYVPTDKKVLFGHHFAAIAGAGPLVGPVLAAQMGYLPGMIWLLAGVVLAGAVQDFMVLFVSTRRDGRSLGELVKEEMGPTAGVIALVACFMIMVIILAVLAMIVVKALTHSPWGTYTVAFTIPLALFMGIYLRYLRPGRIGEVSVIGLVFLIFAIISGGWVAESPTWAPYFDFTGVQLTWMLVGYGFVAAVLPVWLLLAPRDYLSTFLKIGTIVGLAVGILIMRPTLTMPALTKFVDGTGPVWTGNLFPFLFITIACGAVSGFHALISSGTTPKMLANEGQACFIGYGGMLMESFVAIMALVSACIIDPGVYFAMNSPMAVLAPAGTADVVASAAQVVSSWGFSITPDTLNQIASEVGEQSIISRAGGAPTLAVGMAYILHGALGGMMDVAFWYHFAILFEALFILTAVDAGTRAARFMLQDLLGVVSPGLKRTDSLPANLLATALCVLAWGYFLHQGVVDPLGGINTLWPLFGIANQMLAGMALMLCAVVLFKMKRQRYAWVALVPTAWLLICTLTAGWQKAFSPDAKVGFLAIANKFQAMIDSGNIPSQYTESQLAQLVFNNRLDAGLTIFFMVVVVVLALFSIKTALAALKDPKPTAKETPYEPMPENVEEIVAQAKGAH
notes: full-length, 701 residues, 6His tag, from plasmid pBAD24-cstA6H (uninduced) in intact E. coli MG1655 ΔbtsT ΔcstA ΔyhjX cells; inner membrane protein, TC# 2.A.114
B1 gave a Km [2] of 242 µM.
